Assay results taken from patent US20240307382A1, “MODULATORS OF THE INTEGRATED STRESS PATHWAY” (Calico Life Sciences LLC, priority 2017, published 2024).

test system: HEK293T cells carrying the ATF4 luciferase reporter; experiment: ATF4-Luc assay (ATF4 luciferase reporter, tunicamycin-treated cells); type: cell-based; conditions: Homo sapiens, HEK-293T, 1 μg/mL tunicamycin, 7 hours
Experimental: In order to test exemplary compounds of the invention in a cellular context, a stable VWMD cell line was first constructed. The ATF4 reporter was prepared by fusing the human full-length ATF4 5′-UTR (NCBI Accession No. BC022088.2) in front of the firefly luciferase (FLuc) coding sequence lacking the initiator methionine as described in Sidrauski et al (eLife 2013). The construct was used to produce recombinant retroviruses using standard methods and the resulting viral supermatant was used to transduce ITEK293T cells, which were then subsequently selected with puromycin to generate a stable cell line.
HTEK293T cells carrying the ATF4 luciferase reporter were plated on polylysine coated 384-well plates (Greiner Bio-one) at 30,000 cells per well. Cells were treated the next day with 1 μg/mL tunicamycin and 200 nM of a compound of Formula (I) for 7 hours. Luminescence was measured using One Glo (Promega) as specified by the manufacturer. Cells were maintained in DMEM with L-glutamine supplemented with 10% heat-inactivated FBS (Gibco) and Antibiotic-Antimycotic solution (Gibco).
Table 2 below summarizes the EC50 data obtained using the ATF4-Luc assay for exemplary compounds of the invention.

SMILES	EC50 [µM]
O=C(COc1ccc(Cl)c(F)c1)NC12CCC(NC(=O)c3ccc(OC(F)(F)F)cn3)(C1)C2 [Compound 297, N-{4-[2-(4-chloro-3-fluorophenoxy)acetamido]bicyclo[2.1.1]hexan-1-yl}-5-(trifluoromethoxy)pyridine-2-carboxamide]	< 0.05
O=C(COc1ccc(Cl)c(F)c1)NC12CCC(NC(=O)c3cc(CO)ccn3)(C1)C2 [Compound 333, N-{4-[2-(4-chloro-3-fluorophenoxy)acetamido]bicyclo[2.1.1]hexan-1-yl}-4-(hydroxymethyl)pyridine-2-carboxamide]	1 to 2
N#CCCc1ccc(C(=O)NC23CC(NC(=O)COc4ccc(Cl)c(F)c4)(C2)C3)nc1 [Compound 335, N-{3-[2-(4-chloro-3-fluorophenoxy)acetamido]bicyclo[1.1.1]pentan-1-yl}-5-(2-cyanoethyl)pyridine-2-carboxamide]	0.05 to 0.25
O=C(COc1ccc(Cl)c(Cl)c1)NC12CC(NC(=O)c3ccc(Cl)cn3)(C1)C2 [Compound 691, 5-chloro-N-{3-[2-(3,4-dichlorophenoxy)acetamido]bicyclo[1.1.1]pentan-1-yl}pyridine-2-carboxamide]	< 0.05
COc1ccnc(C(=O)NC23CCC(NC(=O)COc4ccc(Cl)c(F)c4)(CC2)C(O)C3)c1 (stereo not shown) [Compound 924, N-{4-[2-(4-chloro-3-fluorophenoxy)acetamido]-3-hydroxybicyclo[2.2.2]octan-1-yl}-4-methoxypyridine-2-carboxamide]	1 to 2
O=C(COc1ccc(Cl)c(F)c1)NC12CCC(NC(=O)c3ccc(-c4ccc(F)cc4)cn3)(CC1)CC2O (stereo not shown) [Compound 939, N-{4-[2-(4-chloro-3-fluorophenoxy)acetamido]-3-hydroxybicyclo[2.2.2]octan-1-yl}-5-(4-fluorophenyl)pyridine-2-carboxamide]	0.25 to 1
CCc1cncc(C(=O)NC23CC(NC(=O)COc4ccc(Cl)c(F)c4)(C2)C3)c1 [Compound 948, N-{3-[2-(4-chloro-3-fluorophenoxy)acetamido]bicyclo[1.1.1]pentan-1-yl}-5-ethylpyridine-3-carboxamide]	< 0.05
CCc1cncc(C(=O)NC23CC(NC(=O)COc4ccc(Cl)c(Cl)c4)(C2)C3)c1 [Compound 949, N-{3-[2-(3,4-dichlorophenoxy)acetamido]bicyclo[1.1.1]pentan-1-yl}-5-ethylpyridine-3-carboxamide]	< 0.05
O=C(COc1ccc(Cl)c(F)c1)NC12CCC(NC(=O)c3cnc4cc(F)ccc4n3)(CC1)[C@@H](O)C2 [Compound 950, N-{(2S)-4-[2-(4-chloro-3-fluorophenoxy)acetamido]-2-hydroxybicyclo[2.2.2]octan-1-yl}-6-fluoroquinoxaline-2-carboxamide]	< 0.05
O=C(COc1ccc(Cl)c(F)c1)NC12CC(NC(=O)c3cnc4cc(F)ccc4n3)(C1)C2 [Compound 951, N-{3-[2-(4-chloro-3-fluorophenoxy)acetamido]bicyclo[1.1.1]pentan-1-yl}-6-fluoroquinoxaline-2-carboxamide]	< 0.05
O=C(COc1ccc(Cl)c(F)c1)NC12CCC(NC(=O)c3cccc(-c4cccc(F)c4)n3)(CC1)CC2O (stereo not shown) [Compound 952, N-{4-[2-(4-chloro-3-fluorophenoxy)acetamido]-3-hydroxybicyclo[2.2.2]octan-1-yl}-6-(3-fluorophenyl)pyridine-2-carboxamide]	< 0.05
N#Cc1cnccc1NC12CC(NC(=O)COc3ccc(Cl)c(F)c3)(C1)C2 [Compound 953, 2-(4-chloro-3-fluorophenoxy)-N-{3-[(3-cyanopyridin-4-yl)amino]bicyclo[1.1.1]pentan-1-yl}acetamide]	0.05 to 0.25
O=C(COc1ccc(Cl)c(F)c1)NC12CC(Nc3cccc(-n4ccccc4=O)n3)(C1)C2 [Compound 954, 2-(4-chloro-3-fluorophenoxy)-N-{3-[(2-oxo-2H-[1,2′-bipyridin]-6′-yl)amino]bicyclo[1.1.1]pentan-1-yl}acetamide]	> 2
O=C(COc1ccc(Cl)c(F)c1)NC12CC(Nc3ccnc(-n4ccnc4)c3)(C1)C2 [Compound 955, 2-(4-chloro-3-fluorophenoxy)-N-(3-{[2-(1H-imidazol-1-yl)pyridin-4-yl]amino}bicyclo[1.1.1]pentan-1-yl)acetamide]	0.25 to 1
O=C(COc1ccc(Cl)c(F)c1)NC12CC(Nc3cccc(N4CCOCC4)n3)(C1)C2 [Compound 957, 2-(4-chloro-3-fluorophenoxy)-N-(3-{[6-(morpholin-4-yl)pyridin-2-yl]amino}bicyclo[1.1.1]pentan-1-yl)acetamide]	0.25 to 1
O=C(COc1ccc(Cl)c(F)c1)NC12CC(Nc3ccc4ncnc(N5CCOCC5)c4c3)(C1)C2 [Compound 958, 2-(4-chloro-3-fluorophenoxy)-N-(3-{[4-(morpholin-4-yl)quinazolin-6-yl]amino}bicyclo[1.1.1]pentan-1-yl)acetamide]	0.05 to 0.25

SMILES	EC50 [µM]
CN1CCN(c2ncnc3ccc(NC45CC(NC(=O)COc6ccc(Cl)c(F)c6)(C4)C5)cc23)CC1 [Compound 959, 2-(4-chloro-3-fluorophenoxy)-N-(3-{[4-(4-methylpiperazin-1-yl)quinazolin-6-yl]amino}bicyclo[1.1.1]pentan-1-yl)acetamide]	> 2
COC(=O)c1ccc2nccc(NC34CC(NC(=O)COc5ccc(Cl)c(F)c5)(C3)C4)c2c1 [Compound 960, methyl 4-({3-[2-(4-chloro-3-fluorophenoxy)acetamido]bicyclo[1.1.1]pentan-1-yl}amino)quinoline-6-carboxylate]	< 0.05
NC(=O)c1cccc(NC23CC(NC(=O)COc4ccc(Cl)c(F)c4)(C2)C3)n1 [Compound 961, 6-({3-[2-(4-chloro-3-fluorophenoxy)acetamido]bicyclo[1.1.1]pentan-1-yl}amino)pyridine-2-carboxamide]	1 to 2
O=C(COc1ccc(Cl)c(F)c1)NC12CC(Nc3cc(N4CCCC4)ccn3)(C1)C2 [Compound 962, 2-(4-chloro-3-fluorophenoxy)-N-(3-{[4-(pyrrolidin-1-yl)pyridin-2-yl]amino}bicyclo[1.1.1]pentan-1-yl)acetamide]	1 to 2
O=C(COc1ccc(Cl)c(F)c1)NC12CC(Nc3cc(N4CCOCC4)ccn3)(C1)C2 [Compound 963, 2-(4-chloro-3-fluorophenoxy)-N-(3-{[4-(morpholin-4-yl)pyridin-2-yl]amino}bicyclo[1.1.1]pentan-1-yl)acetamide]	> 2
COC(=O)c1ccnc(NC23CC(NC(=O)COc4ccc(Cl)c(F)c4)(C2)C3)c1 [Compound 964, methyl 2-({3-[2-(4-chloro-3-fluorophenoxy)acetamido]bicyclo[1.1.1]pentan-1-yl}amino)pyridine-4-carboxylate]	> 2
CCOC(=O)c1cncc(NC23CC(NC(=O)COc4ccc(Cl)c(F)c4)(C2)C3)c1 [Compound 965, ethyl 5-({3-[2-(4-chloro-3-fluorophenoxy)acetamido]bicyclo[1.1.1]pentan-1-yl}amino)pyridine-3-carboxylate]	0.25 to 1
O=C(COc1ccc(Cl)c(F)c1)NC12CC(Nc3cnc4nccnc4c3)(C1)C2 [Compound 966, 2-(4-chloro-3-fluorophenoxy)-N-{3-[(pyrido[2,3-b]pyrazin-7-yl)amino]bicyclo[1.1.1]pentan-1-yl}acetamide]	0.25 to 1
CN(C(=O)c1cc(C(F)F)no1)C12CCC(NC(=O)COc3ccc(Cl)c(F)c3)(CC1)[C@@H](O)C2 [Compound 967, N-{(3S)-4-[2-(4-chloro-3-fluorophenoxy)acetamido]-3-hydroxybicyclo[2.2.2]octan-1-yl}-3-(difluoromethyl)-N-methyl-1,2-oxazole-5-carboxamide]	1 to 2
Cc1cc(C(=O)N(C)C23CCC(NC(=O)COc4ccc(Cl)c(Cl)c4)(CC2)[C@@H](O)C3)on1 [Compound 968, N-{(3S)-4-[2-(3,4-dichlorophenoxy)acetamido]-3-hydroxybicyclo[2.2.2]octan-1-yl}-N,3-dimethyl-1,2-oxazole-5-carboxamide]	1 to 2
O=C(COc1ccc(Cl)c(F)c1)NC12CCC(NC(=O)c3coc(C(F)F)n3)(CC1)C[C@@H]2O [Compound 969, N-{(3S)-4-[2-(4-chloro-3-fluorophenoxy)acetamido]-3-hydroxybicyclo[2.2.2]octan-1-yl}-2-(difluoromethyl)-1,3-oxazole-4-carboxamide]	< 0.05
CC(O)c1ncc(C(=O)NC23CCC(NC(=O)COc4ccc(Cl)c(F)c4)(CC2)CC3)s1 (stereo not shown) [Compound 970, N-{4-[2-(4-chloro-3-fluorophenoxy)acetamido]bicyclo[2.2.2]octan-1-yl}-2-(1-hydroxyethyl)-1,3-thiazole-5-carboxamide]	> 2
O=C(COc1ccc(Cl)c(Cl)c1)NC12CC(NC(=O)c3cc(O)c4cc(Cl)ccc4n3)(C1)C2 [Compound 971, 6-chloro-N-{3-[2-(3,4-dichlorophenoxy)acetamido]bicyclo[1.1.1]pentan-1-yl}-4-hydroxyquinoline-2-carboxamide]	< 0.05
O=C(COc1ccc(Cl)c(F)c1)NC12CC(NC(=O)c3cc4c(cn3)CCCC4)(C1)C2 [Compound 972, N-{3-[2-(4-chloro-3-fluorophenoxy)acetamido]bicyclo[1.1.1]pentan-1-yl}-5,6,7,8-tetrahydroisoquinoline-3-carboxamide]	0.05 to 0.25
O=C(COc1ccc(Cl)c(F)c1)NC12CCC(NC(=O)c3cnc4cc(C(F)(F)F)ccc4n3)(CC1)C[C@@H]2O [Compound 973, N-{(3S)-4-[2-(4-chloro-3-fluorophenoxy)acetamido]-3-hydroxybicyclo[2.2.2]octan-1-yl}-6-(trifluoromethyl)quinoxaline-2-carboxamide]	< 0.05
